The results in this text go back to patent publication US20210024583A1, “COMPOSITIONS AND METHODS FOR PEPTIDE MEDIATED OLIGONUCLEOTIDE DELIVERY TO THE CENTRAL NERVOUS SYSTEM” (The Regents of the University of California, priority 2019, published 2021).

“Also recorded” adds a separate entry of the source. Where no end group is shown, it is not given here.

Data set [1] in a line: Brain distribution of FITC labeled siαSyn after single i.p. injection (co-labeling NeuN, GFAP). In kind it is in vivo, mouse. Here is the method: To determine the co-localization between fluorescein isothiocyanate (FITC)-siαSyn and cellular markers, double labeling experiments were performed as previously described (44, 45). […] vibratome sections were immunolabeled with the rabbit polyclonal antibody against α-synuclein (Chemicon, affinity purified polyclonal), NeuN (neuronal marker, Millipore) or GFAP (astroglial marker, Chemicon) and the immunoreactive structures were detected with the Tyramide Signal Amplification™-Direct (Red) system (NEN Life Sciences) while the siRNA was directly visualized by the appended FITC label. Sections were imaged with a Zeiss 63X™ (N.A. 1.4) objective on an Axiovert 35™ microscope (Zeiss) with an attached MRC1024™ LSCM system (BioRad).
4 hours after injection, mice were sacrificed, whole brain removed and fixed. (A,B) Sections were stained for the neuronal marker NeuN and the nuclear stain DAPI and then visualized for co-localization with the FITC labeled siRNA. (D,E) Sections were stained for the astrocytic marker GFAP and the nuclear stain DAPI and then visualized for co-localization with the FITC labeled siRNA.

Data set [2] concerns α-synuclein. The data set is described as follows: α-synuclein levels and co-localization in cortex after single i.p. FITC siαSyn:peptide. The format is in vivo, mouse. Particulars: single i.p. injection, 4 hours.
Method: To determine the co-localization between fluorescein isothiocyanate (FITC)-siαSyn and cellular markers, double labeling experiments were performed as previously described (44, 45). 40 p.m-thick vibratome sections were immunolabeled with the rabbit polyclonal antibody against α-synuclein (Chemicon, affinity purified polyclonal), NeuN (neuronal marker, Millipore) or GFAP (astroglial marker, Chemicon) and the immunoreactive structures were detected with the Tyramide Signal Amplification™-Direct (Red) system (NEN Life Sciences) while the siRNA was directly visualized by the appended FITC label. Sections were imaged with a Zeiss 63X™ (N.A. 1.4) objective on an Axiovert 35™ microscope (Zeiss) with an attached MRC1024™ LSCM system (BioRad) [22].
4 hours after injection, mice were sacrificed, whole brain removed and fixed. Sections were stained for α-synuclein and the nuclear marker, DAPI and then visualized for co-localization with the FITC labeled siRNA.

Turning to RLTRKRGLKLAGGGGGRRRRRRRRR [ApoB^11], the “co-labeling of FITC labeled siαSyn RNA with astrocyte marker GFAP” value in data set [1] (4 hours after i.p. injection) is on record as “co-labeled with the astrocyte marker, GFAP in the cell body but not in the processes”. In addition, the “cellular localization of FITC labeled siαSyn in brain (co-labeling with NeuN, GFAP)” value in data set [1] (4 hours after single i.p. injection, 50 μg, siRNA conjugated to the named peptide) is “delivered siαSyn RNA to neuronal cells; also recorded: primarily to neurons and only to a lesser extent the astrocytes”. Further, the “FITC labeled siRNA delivered to NeuN positive neurons, compared with C2-9r peptide” value in data set [1] (α-syn tg mice, 4 hours after i.p. injection) is “significantly greater”. In addition, in data set [2], the “co-localization of FITC label of siαSyn with αSyn expressing cells” value is “co-localized with αSyn expressing cells”.
